Reference: patent US20210363495A1, “CULTURE MEDIA FOR PLURIPOTENT STEM CELLS” (Yeda Research and Development Co. Ltd., priority 2019, published 2021)

Experiments:
[1] = tested on: Tet-OFF-METTL3 hESCs (WIBR3, clone W3G4); test: Pluripotency (OCT4+) maintenance of Tet-OFF-METTL3 hESCs in the presence of DOX; format: cell-based, human; conditions: for expanding METTL3 depleted cells when substituted for TNKi: optimized ENHSM conditions without TNKi, DOX up to 4 passages; for expansion of Tet-OFF-METTL3 on DOX: individual small molecule supplemented to NHSM, Geltrex coated plates, no MEFs
Excerpt: FIGS. 1A-I Defining enhanced human naive conditions compatible with expanding METTL3 depleted PSCs. A. Strategy for generating human ESCs with TET-OFF regulated expression of METTL3 m^6A methyltransferase enzyme. B. Western blot analysis for correctly engineered human ESCs with TET-OFF METTL3 regulation, before and after DOX treatment. C. Representative images for human METTL3 TET-OFF engineered cells in different conditions with or without DOX addition. […] D. Scheme depicting strategy for conducting a screen for identifying a small molecule or cytokine additive to previously described human naïve NHSM conditions that allow maintain pluripotency in TET-OFF METTL3 human stem cells after adding DOX. E. W3G4 cells were maintained in the presence of DOX for up to 4 passages in different conditions and stained for OCT4 to quantify percentage of cells that retained their pluripotency. […] F. OCT4+ pluripotency maintenance in NHSM conditions supplemented with various TNK inhibitors and DOX to repress METTL3 expression. G. Quantification of ΔPE-OCT4-GFP knock in naïve pluripotency reporter, in variety of primed (red) and naïve conditions (blue). Mean fluorescence intensity values (MFI) are indicated. H. Quantification of ΔPE-OCT4-GFP knock in naïve pluripotency reporter in variety of conditions with various concentrations of ACTIVIN A recombinant cytokine. […] I. Representative phase contrast images in human ESCs expanded in NHSM+TNKi conditions showing their maintenance of pluripotent domed-like morphology even in the presence of FGFRi.
In order to identify culture conditions which capture human naïve PSC, the present inventors looked for agents which are capable of maintaining stem cells in a pluripotent state in the absence of defined epigenetic repressors. Human knock-in WIBR3 hESC lines with conditional inducible ablation expression of METTL3 were engineered (FIG. 1A). This was carried out by introducing an exogenous METTL3 transgene under the regulation of Tet-OFF promoter (Liao et al., 2015), followed by CRISPR/Cas9 mediated ablation of both endogenous human METTL3 alleles. Two resultant clones were validated for METTL3 expression only from the exogenous allele, which can be shut off by addition of DOX to the media (called Tet-OFF-METTL3 lines) (FIG. 1B).
The latter further support rewiring toward naïve pluripotency in NHSM conditions. […] Candidate molecules were tested for the ability to enrich NHSM conditions that allow Tet-OFF-METTL3 to be maintained on Geltrex coated plates in the presence of DOX.
NHSM conditions were supplemented with individual small molecules (FIG. 1D). […] IWR1 is a WNT inhibitor (WNTi) small molecule that stabilizes AXIN protein in the cytoplasm by inhibiting Tankyrase enzyme (abbreviated herein as TNK inhibitor—TNKi).

[2] = tested on: WIBR2 hESC carrying MECP2 fluorescent reporter alleles; test: X chromosome reactivation, MECP2 two-colour reporter FACS; format: cell-based, human; conditions: added to ENHSM without ERKi (0ENHSM) or with 0.33 microM ERKi (tENHSM)
Excerpt: FIGS. 17A-D. Chromosome X reactivation status and DNA methylation profile in ENHSM based conditions. A. Schematic and FACS results following using WIBR2 (person 46XX) 29-9 hESC line that carries GFP and mCherry on each of the X chromosomes in the MECP2 locus. Parental 29-9 clone has the X chromosome carrying mCherry allele in the active state, and thus is positive only for mCherry and negative for GFP in the primed state. Upon transfer to ENHSM conditions, all cells turn on both X chromosomes and thus become double positive for both fluorescent markers (GFP and mCherry). After transfer into primed conditions (i.e. repriming), cells start to inactivate the X chromosome again. B. RNA-FISH analysis for ATRX transcription in primed and ENHSM WIBR3 cells. Note ATRX is active on both X chromosomes only in ENHSM conditions. C. Western blot analysis for DNA methylation regulators, DNMT1 and UHRF enzymes. DNMT1 protein levels are maintained in all conditions. […] D. Global methylation histogram as calculated from primed samples, and naïve samples that were maintained in various conditions, including titrated ERKi supplementation, along with previously published Reset-naïve and primed samples (Takashima et al), and human ICM samples (Smith et al, Nature 2014, Guo et al, Nature 2014). […]

[3] = tested on: human ESCs; test: Domed morphology under TGF/ACTIVIN signalling blockade; format: cell-based
Excerpt: FIGS. 1A-I Defining enhanced human naive conditions compatible with expanding METTL3 depleted PSCs. A. Strategy for generating human ESCs with TET-OFF regulated expression of METTL3 m^6A methyltransferase enzyme. B. Western blot analysis for correctly engineered human ESCs with TET-OFF METTL3 regulation, before and after DOX treatment. C. Representative images for human METTL3 TET-OFF engineered cells in different conditions with or without DOX addition. […] E. W3G4 cells were maintained in the presence of DOX for up to 4 passages in different conditions and stained for OCT4 to quantify percentage of cells that retained their pluripotency. […] G. Quantification of ΔPE-OCT4-GFP knock in naïve pluripotency reporter, in variety of primed (red) and naïve conditions (blue). Mean fluorescence intensity values (MFI) are indicated. H. Quantification of ΔPE-OCT4-GFP knock in naïve pluripotency reporter in variety of conditions with various concentrations of ACTIVIN A recombinant cytokine. […]
FIGS. 3A-I. Defining enhanced human naive conditions compatible with blocking TGF/ACTIVIN signaling. […] F. Mass spectrometry-based quantification of m^6A on isolated mRNA from the indicated cell lines and conditions. […]

O=C1Cc2c([nH]c3ccc(Br)cc23)-c2ccccc2N1 [Kenpaullone]
expanding METTL3 depleted cells when substituted for TNKi [1]: none of them allowed expanding METTL3 depleted cells in vitro

O=C(Nc1cccc2cccnc12)c1ccc(N2C(=O)[C@@H]3[C@H](C2=O)[C@H]2C=C[C@@H]3C2)cc1 [exo-IWR1]
expansion of Tet-OFF-METTL3 on DOX [1]: failed to do so

C[C@H](NC(=O)Cc1cc(F)cc(F)c1)C(=O)N[C@@H]1C(=O)N(C)c2ccccc2-c2ccccc21 [DBZ]
maintenance of pre-X inactivation naïve state when ERKi is omitted or depleted [2]: allowed robust and feeder free maintenance of human naïve cells

COc1cccc(-c2cn(-c3ccc(CCN4CCC(O)CC4)cc3)c3ncnc(N)c23)c1 [CGP77675]
maintenance of OCT4+ cells without ACTIVIN A ([1]; TNKi supplemented optimized NHSM, no ACTIVIN A, on DOX): dramatically maintained the stability of dome like cells that were uniformly OCT4+

Oc1nc(-c2ccc(C(F)(F)F)cc2)nc2c1CSCC2 [XAV939]
expansion of Tet-OFF-METTL3 on DOX [1]: yielded a similar effect

Cc1cccc(-c2nn(C(=S)Nc3ccccc3)cc2-c2ccnc3ccccc23)n1 [Condition A83-01]
domed morphology after TGFRi ([3]; cells in ENHSM): maintained | domed morphology after TGFRi ([3]; cells in NHSM+TNKi): lose their pluripotent dome-like shaped morphology and differentiate

CCCC(CCC)C(=O)O [VPA]
expanding METTL3 depleted cells when substituted for TNKi [1]: none of them allowed expanding METTL3 depleted cells in vitro

B1: ACTIVIN A: recombinant cytokine, activator of TGF/ACTIVIN pathway (protein)
chain: MPLLWLRGFLLASCWIIVRSSPTPGSEGHSAAPDCPSCALAALPKDVPNSQPEMVEAVKKHILNMLHLKKRPDVTQPVPKAALLNAIRKLHVGKVGENGYVEIEDDIGRRAEMNELMEQTSEIITFAESGTARKTLHFEISKEGSDLSVVERAEVWLFLKVPKANRTRTKVTIRLFQQQKHPQGSLDTGEEAEEVGLKGERSELLLSEKVVDARKSTWHVFPVSSSIQRLLDQGKSSLDVRIACEQCQESGASLVLLGKKKKKEEEGEGKKKGGGEGGAGADEEKEQSHRPFLMLQARQSEDHPHRRRRRGLECDGKVNICCKKQFFVSFKDIGWNDWIIAPSGYHANYCEGECPSHIAGTSGSSLSFHSTVINHYRMRGHSPFANLKSCCVPTKLRPMSMLYYDDGQNIIKKDIQNMIVEECGCS
modifications: homo sapiens
maintenance of pre-X inactivation naïve state when ERKi is omitted or depleted [2]: did not block loss X reactivation
